Experimental findings from US7786141B2 (Vertex Pharmaceuticals Incorporated, priority 2004, dated 2010) are described below.

The target in assay [1] is T1, M1 muscarinic receptor (Homo sapiens, UniProt P11229).
T1 construct: expressed in transfected cells; host or cells: CHO (M1-CHO)
T1 sequence (P11229 1-460): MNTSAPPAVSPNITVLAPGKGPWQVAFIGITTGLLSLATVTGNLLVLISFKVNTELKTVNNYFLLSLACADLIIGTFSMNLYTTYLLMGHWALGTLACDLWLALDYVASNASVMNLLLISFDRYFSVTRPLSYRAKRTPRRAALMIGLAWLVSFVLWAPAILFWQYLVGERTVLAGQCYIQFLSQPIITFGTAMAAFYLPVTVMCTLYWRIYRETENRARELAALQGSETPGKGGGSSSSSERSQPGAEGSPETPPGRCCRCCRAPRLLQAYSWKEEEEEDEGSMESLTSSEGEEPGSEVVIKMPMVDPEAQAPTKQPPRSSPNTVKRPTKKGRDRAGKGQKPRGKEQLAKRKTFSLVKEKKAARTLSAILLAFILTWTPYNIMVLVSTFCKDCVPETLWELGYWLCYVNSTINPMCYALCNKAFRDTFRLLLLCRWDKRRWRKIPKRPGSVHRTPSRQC
The assay is described as follows: Functional mobilization of intracellular calcium (FLIPR) in M1-CHO cells. The assay is classed as cell-based. To be noted: M1 receptor, calcium mobilization; for Emax: read-out: M1 Efficacy. As for the experimental part: (§1) Functional Mobilization of Intracellular Calcium to Determine Muscarinic Receptor Activity:
(§2) CHO cells expressing muscarinic receptors (M1 to M5) are grown as monolayers in tissue culture flasks at 37° C. in a humidified atmosphere containing 5% CO2 and passaged every 3-5 days. The growth media is Dulbecco's modified eagles medium (DMEM, Gibco Cat# 12430-054), containing 25 mM Hepes and supplemented with Fetal Bovine Serum (Hyclone, cat# SH30071.03), 0.1 mM of MEM non-essential amino acids (GIBCO, Cat# 11140-050), 1 mM MEM Sodium Pyruvate (GIBCO Cat# 11360-070) and 100 units/ml of Penicillin G and 100 μg/ml of Streptomycin (GIBCO Cat# 15140-122). The recombinant muscarinic receptor cell lines are grown under antibiotic pressure with media containing 25 μg/ml zeocin and 500 μg/ml G418 (M1-CHO), 4 μg/ml puromycin, 50 μg/ml zeocin and 2.5 μg/ml blasticidin (M2 and M4-CHO) or 50 μg/ml zeocin and 4 μg/ml puromycin (M3 and M5-CHO).
(§3) Cells are harvested at 80-90% confluence using Versene (GIBCO Cat# 15040-066), collected by centrifugation and seeded 18-24 hrs prior to running the calcium assay at a density of 5,000 cells/well in back-walled, clear-bottomed 384-well plates (BD Biocoat, poly-D-lysine, Cat#356663). The day of the experiment, the cells are washed with a plate washer (Bioteck Instruments, ELX 405) using bath 1 buffer (140-mM NaCl, 4.5-mM KCl, 2-mM CaCl2, 1-mM MgCl2, 10-mM Hepes-Na, 10-mM Glucose, pH 7.4, with NaOH) containing 1 mM Probenecid. Next, the calcium dye Fluo-3 (25 μl/well of Fluo-3 AM at 4 μM, Molecular Probes F-1241, in Bath 1 buffer containing 1 mM Probenecid) is added to the 25 μl of Bath 1 remaining in each well after the plate wash and the dye is loaded at 37° C. in the tissue culture incubator for 60-90 min. The fluorescent dye is removed using the plate washer with Bath 1 containing 1 mM Probenecid, leaving 25 μl/well of this solution after the wash. Alternatively, cells can be loaded with the calcium indicator from Molecular Devices (Calcium 3 Assay Reagents, Cat # R7181) adding 5 μl of a 5× solution dye in Bath 1 containing 1 mM Probenecid (10 ml per dye flask cat# R7182 to generate a solution 20×) to 20 μl of the same buffer. After loading for 60 min, the experiment can be run without having to remove the dye.
(§4) Compounds are prepared at a 2× fold concentration in a 96-well plate (round bottom, Costar Corning cat# 3656), by reconstituting the pre-spotted compounds in bath 1 containing 1 mM probenecid. The final concentration DMSO is 0.5%, and the amount of DMSO is normalized across the assay plate. To determine an agonist action of the compounds on muscarinic receptors, the reconstituted compounds are added (25 μl compound/well) to the cell assay plate (containing 25 μl/well) using the multi-channel robotic system of the FLIPR 3 Instrument (Molecular Devices, Sunnyvale, Calif.). To determine a functional inhibitory action of the compounds on muscarinic receptors, the reconstituted compounds are added (25 μl compound/well) to the assay plate and pre-incubated for 15 min prior to adding 25 μl of Carbachol at 3× the EC80 for each muscarinic subtype. Alternatively, the compounds can be co-applied simultaneously with the agonist. In both assay modes, the fluorescence is recorded for 60 sec (excitation wavelength is […] and emission wavelength 540 nm) using the FLIPR 3 instrument.
(§5) The potency, efficacy and selectivity of the muscarinic compounds were evaluated by screening the compound activity across the whole family (M1 to M5 cells). Compounds were also screened for activity on other proteins such as other GPCRs and ion channels to determine selectivity on M4 receptors.
In general terms: A change in cytosolic calcium serves as a functional read-out for many receptors and channels.

Assay [2] has as its target T2, M4 muscarinic receptor (Homo sapiens, UniProt P08173).
T2 construct: expressed in transfected cells; host or cells: CHO (M4-CHO)
T2 sequence (P08173 1-479): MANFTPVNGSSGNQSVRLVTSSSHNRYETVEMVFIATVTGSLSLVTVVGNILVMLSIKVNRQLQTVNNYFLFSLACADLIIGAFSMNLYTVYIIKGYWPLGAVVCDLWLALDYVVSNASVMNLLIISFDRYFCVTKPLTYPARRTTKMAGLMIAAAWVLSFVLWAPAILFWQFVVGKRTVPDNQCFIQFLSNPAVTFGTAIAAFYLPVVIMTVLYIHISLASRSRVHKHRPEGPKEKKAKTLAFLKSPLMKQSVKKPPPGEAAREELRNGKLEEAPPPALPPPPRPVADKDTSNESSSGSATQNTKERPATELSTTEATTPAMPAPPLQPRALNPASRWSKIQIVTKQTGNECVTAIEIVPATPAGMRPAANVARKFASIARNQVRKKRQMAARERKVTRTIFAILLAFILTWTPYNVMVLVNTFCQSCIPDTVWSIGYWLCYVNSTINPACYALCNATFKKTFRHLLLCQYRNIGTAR
The assay is described as follows: Functional mobilization of intracellular calcium (FLIPR) in M4-CHO cells. The assay is classed as cell-based. The conditions noted are these: M4 receptor, calcium mobilization; for Emax: read-out: M4 Efficacy. As for the experimental part: as §1, §2, §3, §4, §5

For the compound `c1ccc2c(c1)CCC21CCN(CC2CCOCC2)CC1` [compound 18], in assay [1], the “M1 Activity” value is reported as “xxx (activity was measured to be less than 0.1 μM)” and the Emax was less than 65%. For the same compound, in assay [2], the “M4 Activity” value is “xx (activity was measured to be between 0.1 μM and 1.0 μM)”; the Emax is more than 85%.
Consider `CCOC(=O)N1CCC(N2CCC3(CC2)CNc2ccc(Cl)cc23)CC1` [compound 19], for which, in assay [1], the “M1 Activity” value is listed as “xxx (activity was measured to be less than 0.1 μM)” and the Emax fell in the range of 65 to 85%. For the same compound, in assay [2], the “M4 Activity” value is “xx (activity was measured to be between 0.1 μM and 1.0 μM)”; the Emax lay within 65 to 85%.
Consider `CC1(C)C(=O)c2ccccc2C12CCN(C[C@H]1C[C@@H]3C=C[C@@H]1C3)CC2` [compound 20], for which, in assay [1], the “M1 Activity” value is recorded as “x (activity was measured to be greater than 1.0 μM)” and the Emax is less than 65%. In addition, in assay [2], the “M4 Activity” value is “xx (activity was measured to be between 0.1 μM and 1.0 μM)”; the Emax is less than 65%.
Regarding `CCOC(=O)N1CCC(CN2CCC3(CC2)CN(C(C)=O)c2ccc(OC(F)(F)F)cc23)CC1` [compound 21], in assay [1], the “M1 Activity” value was “xx (activity was measured to be between 0.1 μM and 1.0 μM)”; the Emax is less than 65%. Moreover, in assay [2], the “M4 Activity” value was “x (activity was measured to be greater than 1.0 μM)” and the Emax is less than 65%.
As for `CCOC(=O)N1CCC(N2CCC3(CC2)CN(C(=O)N2CCCC2)c2ccc(F)cc23)CC1` [compound 22], in assay [1], the “M1 Activity” value was “xxx (activity was measured to be less than 0.1 μM)” and the Emax lay in the range of 65 to 85%. In assay [2], the “M4 Activity” value is listed as “x (activity was measured to be greater than 1.0 μM)” and the Emax is less than 65%.
Consider `Cc1ccc2c(c1)C1(CCN([C@@H]3C[C@@H]4CC[C@@H]3C4)CC1)CN2` [compound 23], for which, in assay [1], the “M1 Activity” value is “xx (activity was measured to be between 0.1 μM and 1.0 μM)”; the Emax was less than 65%. In addition, in assay [2], the “M4 Activity” value was “x (activity was measured to be greater than 1.0 μM)” and the Emax is less than 65%.
In the case of `Cc1cc(C(=O)N2CC3(CCN(C4CC5CCC(C4)N5C(=O)OC(C)C)CC3)c3cc(F)ccc32)nn1C` (centres unmarked) [compound 24], in assay [1], the “M1 Activity” value is “xx (activity was measured to be between 0.1 μM and 1.0 μM)”; the Emax is less than 65%. Also, in assay [2], the “M4 Activity” value was “x (activity was measured to be greater than 1.0 μM)” and the Emax is less than 65%.
Consider `COCCOC(=O)N1CCC(CN2CCC3(CC2)CN(C(C)=O)c2ccc(F)cc23)CC1` [compound 26], for which, in assay [1], the “M1 Activity” value was “xxx (activity was measured to be less than 0.1 μM)” and the Emax is 65 to 85%. Also, in assay [2], the “M4 Activity” value was “xx (activity was measured to be between 0.1 μM and 1.0 μM)”; the Emax was less than 65%.
`CCC1CCC(N2CCC3(CC2)CN(C(C)=O)c2ccc(F)cc23)CC1` (centres unmarked) [compound 27]: in assay [1], the “M1 Activity” value is listed as “xxx (activity was measured to be less than 0.1 μM)” and the Emax fell in the range of 65 to 85%. In assay [2], the “M4 Activity” value is “xxx (activity was measured to be less than 0.1 μM)” and the Emax is 65 to 85%.
For `CCOC(=O)N1C2CCC1CC(N1CCC3(CC1)CN(C(=O)O[C@@H]1CCOC1)c1ccc(F)cc13)C2` (some centres unmarked) [compound 28], in assay [1], the “M1 Activity” value is recorded as “xxx (activity was measured to be less than 0.1 μM)” and the Emax is more than 85%. Besides, in assay [2], the “M4 Activity” value is “xx (activity was measured to be between 0.1 μM and 1.0 μM)”; the Emax fell in the range of 65 to 85%.
Consider `CC(=O)N[C@H]1CC2(CCN(CC3CC4CCC3CC4)CC2)c2ccccc21` (some centres unmarked) [compound 29], for which, in assay [1], the “M1 Activity” value is given as “xxx (activity was measured to be less than 0.1 μM)” and the Emax was more than 85%. In addition, in assay [2], the “M4 Activity” value is listed as “xxx (activity was measured to be less than 0.1 μM)” and the Emax was more than 85%.
Consider `CCOC(=O)N1CCC(N2CCC3(CC2)CN(C(=O)OCC(C)C)c2ccc(F)cc23)CC1` [compound 30], for which, in assay [1], the “M1 Activity” value was “xxx (activity was measured to be less than 0.1 μM)” and the Emax was more than 85%. In assay [2], the “M4 Activity” value was “xxx (activity was measured to be less than 0.1 μM)” and the Emax is more than 85%.
Consider `CCOC(=O)N1CCC(N2CCC3(CC2)C(=O)N(C)c2ccccc23)CC1` [compound 31], for which, in assay [1], the “M1 Activity” value is “xxx (activity was measured to be less than 0.1 μM)” and the Emax was more than 85%. Also, in assay [2], the “M4 Activity” value is reported as “xxx (activity was measured to be less than 0.1 μM)” and the Emax fell in the range of 65 to 85%.
With `CN(C)C(=O)N1CC2(CCN(C3CC4CCC(C3)N4C(=O)OCCF)CC2)c2cc(F)ccc21` (centres unmarked) [compound 32], in assay [1], the “M1 Activity” value is on record as “xxx (activity was measured to be less than 0.1 μM)” and the Emax is more than 85%. Moreover, in assay [2], the “M4 Activity” value was “xxx (activity was measured to be less than 0.1 μM)” and the Emax fell in the range of 65 to 85%.
Regarding `COCCOC(=O)N1C2CCC1CC(N1CCC3(CC1)CN(C(=O)OC)c1ccc(F)cc13)C2` (centres unmarked) [compound 33], in assay [1], the “M1 Activity” value was “xxx (activity was measured to be less than 0.1 μM)” and the Emax is more than 85%. In assay [2], the “M4 Activity” value is reported as “xxx (activity was measured to be less than 0.1 μM)” and the Emax was more than 85%.
With `CCOC(=O)N1CCC(CN2CCC3(CC2)CC(=O)Nc2ccccc23)CC1` [compound 34], in assay [1], the “M1 Activity” value was “xxx (activity was measured to be less than 0.1 μM)” and the Emax was in the range of 65 to 85%. Also, in assay [2], the “M4 Activity” value is “xx (activity was measured to be between 0.1 μM and 1.0 μM)”; the Emax was more than 85%.
As for `CC(=O)N1CC2(CCN(C3CC4CCC(C4)C3)CC2)c2cc(F)ccc21` (centres unmarked) [compound 35], in assay [1], the “M1 Activity” value is “xxx (activity was measured to be less than 0.1 μM)” and the Emax is more than 85%. Besides, in assay [2], the “M4 Activity” value is “xx (activity was measured to be between 0.1 μM and 1.0 μM)”; the Emax is more than 85%.
